Test results taken from ChEMBL document CHEMBL1149731, “Aflavarin and -Aflatrem: New Anti-Insectan Metabolites from the Sclerotia of Aspergillus flavus” (1992).
In brackets after ≈: the same amount, converted by molar mass. Activity calls are given as the source filed them. No cut-off for these calls is given here.

Experiments:
Helicoverpa zea = test: Insecticidal activity against Helicoverpa zea assessed as reduction in growth rate; type: functional, organism-based
Carpophilus [1] = test: Antiinsectan activity against Carpophilus hemipterus larvae assessed as feeding reduction at 100 ppm administered through test diet relative to control; type: functional
Carpophilus [2] = test: Antiinsectan activity against adult Carpophilus hemipterus assessed as feeding reduction at 100 ppm administered through test diet relative to control; type: functional
MCF7 = test: Cytotoxicity against human MCF7 cells; type: functional; conditions: read-out: ED50 (the source's name)
Staphylococcus aureus = test: Antibacterial activity against Staphylococcus aureus at 100 ug/disk by standard disk assay; type: functional, organism-based
Bacillus subtilis = test: Antibacterial activity against Bacillus subtilis at 100 ug/disk by standard disk assay; type: functional, organism-based
HT-29 = test: Cytotoxicity against human HT-29 cells; type: functional; conditions: read-out: ED50 (the source's name)
A549 = test: Cytotoxicity against human A549 cells; type: functional; conditions: read-out: ED50 (the source's name)
Carpophilus [3] = test: Insecticidal activity against Carpophilus hemipterus; type: functional, organism-based
Candida albicans = test: Antifungal activity against Candida albicans at 100 ug/disk by standard disk assay; type: functional, organism-based

C=CC(C)(C)c1ccc2[nH]c3c(c2c1)C[C@@H]1CC[C@@]2(O)C4=CC(=O)[C@@H]5O[C@]4(CC[C@]2(C)[C@@]31C)OC5(C)C
Activity (Helicoverpa zea): Active

COc1cc(C)c2c(OC)cc(=O)oc2c1-c1c(O)cc(C)c2c(OC)cc(=O)oc12
Activity (Carpophilus [1]): inactive
Activity (Carpophilus [2]): inactive

COc1cc(CO)c2c(OC)c(-c3c(OC)cc(C)c4c(OC)cc(=O)oc34)c(=O)oc2c1 [AFLAVARIN]
EC50 (MCF7): 55 µg/mL (≈ 121 µM)
Activity (Staphylococcus aureus): inactive
Activity (Bacillus subtilis): inactive
EC50 (HT-29): 5.8 µg/mL (≈ 12.8 µM)
EC50 (A549): 7.5 µg/mL (≈ 16.5 µM)
Activity (Carpophilus [3]): Active
Activity (Carpophilus [1]): 53%
Activity (Carpophilus [2]): 66%
Activity (Candida albicans): inactive
